Results from patent US5656603A (Loyola University of Chicago, priority 1995, dated 1997).
Several values for one entry are separate records, joined by “and”; a condition that tells them apart may be missing. Equal values may be shown once. Entries after “also recorded” stand apart in the source; their conditions may differ. Each block holds one compound with its values, some of them ahead of it.

Experiments:
[1] = target: T1, partially purified human lung membrane-bound aminopeptidase P (Homo sapiens, UniProt O43895); experiment: Aminopeptidase P inhibition, release of arginine from Arg-Pro-Pro (fluorescent assay); assay type: biochemical; settings: human lung aminopeptidase P; for IC50: cleavage of 0.5 μM Arg-Pro-Pro in 0.1M Hepes, pH 8.0 at 37° C.
T1 construct: from tissue; host or cells: human lung microsomes
T1 sequence (O43895 22-674): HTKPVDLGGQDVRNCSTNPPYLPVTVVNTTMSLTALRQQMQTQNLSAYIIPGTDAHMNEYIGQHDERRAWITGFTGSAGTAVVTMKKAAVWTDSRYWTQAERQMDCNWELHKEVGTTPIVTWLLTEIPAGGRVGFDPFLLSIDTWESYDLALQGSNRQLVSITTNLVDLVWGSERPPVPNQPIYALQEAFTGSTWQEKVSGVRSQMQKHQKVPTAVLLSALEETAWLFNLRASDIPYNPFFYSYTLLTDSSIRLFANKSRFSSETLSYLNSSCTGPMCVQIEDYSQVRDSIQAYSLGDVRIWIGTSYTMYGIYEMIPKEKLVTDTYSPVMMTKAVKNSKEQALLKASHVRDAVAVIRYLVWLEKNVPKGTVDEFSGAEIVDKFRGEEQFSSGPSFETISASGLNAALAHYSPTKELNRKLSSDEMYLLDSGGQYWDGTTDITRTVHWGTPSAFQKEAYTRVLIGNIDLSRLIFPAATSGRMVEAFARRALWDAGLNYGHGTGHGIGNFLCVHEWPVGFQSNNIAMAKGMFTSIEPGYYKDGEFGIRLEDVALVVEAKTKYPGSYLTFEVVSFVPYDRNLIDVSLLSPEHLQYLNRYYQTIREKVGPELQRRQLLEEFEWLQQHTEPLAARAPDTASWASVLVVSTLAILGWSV
Procedure: The IC50 of the compound of the present invention in relation to aminopeptidase P was also determined. […] The specificity of the compound of the present invention for other aminopeptidases was similarly determined as described in the Experimental Procedures herein.
(§1) Enzymes--Membrane-bound aminopeptidase P was purified to homogeneity from bovine lung (14) and from rat lung. Partially purified membrane-bound aminopeptidase P from human lung was obtained by treatment of lung microsomes with phosphatidylinositol-specific phospholipase C (B. thuringiensis) (ICN, Costa Mesa, Calif.) followed by centrifugation as described previously (14). Membrane dipeptidase was purified from rat lung microsomes (manuscript in preparation). Recombinant E. coli aminopeptidase P (22) and purified lamb kidney prolyl oligopeptidase (23) were generally supplied by Dr. Tadashi Yoshimoto (Nagasaki University). Purified porcine kidney prolidase and purified porcine kidney aminopeptidase M was obtained from Sigma (St. Louis, Mo.).
Enzyme Kinetics--Aminopeptidase P activity was determined by measuring the release of arginine from Arg-Pro-Pro by a fluorescent assay described previously (14). […] Each mixture was run in duplicate. Aliquots were removed from each incubation mixture at various times and assayed for the amount of arginine present to determine the reaction velocity. In general, reaction velocities were calculated from data representing less than 20% cleavage of substrate. Ki and Ki ' (=αKi) were determined from plots of 1/v versus concentration of inhibitor "i" (26) and S/v versus concentration of inhibitor "i" (27), respectively. These parameters were also determined from the slope replot and 1/v-intercept replot, respectively, of the 1/v versus 1/S plot (28). […] The values from the two treatments of the data were averaged for each experiment. Experiments for each enzyme preparation were performed twice and the results averaged.

[2] = target: T2, purified bovine lung membrane-bound aminopeptidase P (Bos taurus, UniProt E1B735); experiment: as above; assay type: biochemical; settings: bovine lung aminopeptidase P; cleavage of 0.5 μM Arg-Pro-Pro in 0.1M Hepes, pH 8.0 at 37° C.
T2 construct: from tissue; host or cells: bovine lung
T2 sequence (E1B735 22-673): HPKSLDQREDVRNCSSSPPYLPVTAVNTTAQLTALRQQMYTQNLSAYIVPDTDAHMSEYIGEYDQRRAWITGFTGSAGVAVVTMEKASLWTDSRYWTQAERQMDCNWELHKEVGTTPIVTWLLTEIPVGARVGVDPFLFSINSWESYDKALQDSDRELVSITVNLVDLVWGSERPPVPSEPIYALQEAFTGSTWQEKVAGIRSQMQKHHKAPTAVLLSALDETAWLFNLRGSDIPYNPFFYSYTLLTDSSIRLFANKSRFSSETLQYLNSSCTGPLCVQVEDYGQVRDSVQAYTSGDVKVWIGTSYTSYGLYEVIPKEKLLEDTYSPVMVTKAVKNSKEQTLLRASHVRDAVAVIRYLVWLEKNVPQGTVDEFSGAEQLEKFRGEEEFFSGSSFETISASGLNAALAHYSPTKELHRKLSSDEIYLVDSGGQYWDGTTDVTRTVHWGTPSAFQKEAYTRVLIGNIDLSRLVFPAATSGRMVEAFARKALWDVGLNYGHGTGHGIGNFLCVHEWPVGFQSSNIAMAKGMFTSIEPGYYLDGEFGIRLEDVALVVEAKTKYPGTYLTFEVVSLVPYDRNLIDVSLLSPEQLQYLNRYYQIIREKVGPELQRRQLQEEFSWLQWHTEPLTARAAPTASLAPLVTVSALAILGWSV
Procedure: The IC50 of the compound of the present invention in relation to aminopeptidase P was also determined. […] The specificity of the compound of the present invention for other aminopeptidases was similarly determined as described in the Experimental Procedures herein. […] The following enzymes had IC50 values>800 μM: aminopeptidase A, angiotensin converting enzyme, dipeptidyl-peptidase I-like activity, bestatin-sensitive/amastatin-insensitive membrane dipeptidase (29), microsomal dipeptidase, endopeptidase 24.11, endopeptidase 24.15, and prolyl oligopeptidase.
as §1
Enzyme Kinetics--Aminopeptidase P activity was determined by measuring the release of arginine from Arg-Pro-Pro by a fluorescent assay described previously (14). […] Each mixture was run in duplicate. Aliquots were removed from each incubation mixture at various times and assayed for the amount of arginine present to determine the reaction velocity. In general, reaction velocities were calculated from data representing less than 20% cleavage of substrate. Ki and Ki ' (=αKi) were determined from plots of 1/v versus concentration of inhibitor "i" (26) and S/v versus concentration of inhibitor "i" (27), respectively. These parameters were also determined from the slope replot and 1/v-intercept replot, respectively, of the 1/v versus 1/S plot (28). See e.g., FIG. 1B. The values from the two treatments of the data were averaged for each experiment. Experiments for each enzyme preparation were performed twice and the results averaged.

[3] = system: [3H]-bradykinin degradation in the isolated perfused rat lung; experiment: [3H]-bradykinin degradation in the isolated perfused rat lung (HPLC of perfusate)
Procedure: Using the procedure described herein, under Experimental Procedures it was determined that aminopeptidase P contributed to Bk degradation in the mammalian lung. In that procedure, [^3 H]-Bk (labelled in Pro^2 and Pro^3) was perfused through the isolated lung in the presence or absence of various peptidase inhibitors. The perfusate was then analyzed for radiolabelled products by HPLC. […] Most of the radioactivity (an average of 79%) was in the form of [^3 H]-Pro-Pro [Bk(2-3)] with the remainder being [^3 H]-Bk(1-5). It was hypothesized that pulmonary vascular aminopeptidase P was cleaving the Arg'-Pro^2 bond followed by rapid removal of Pro-Pro by dipeptidylpeptidase IV (DPP IV) (12). Simultaneously, angiotensin converting enzyme (ACE) was sequentially removing Phe-Arg and Ser-Pro from the C-terminus (13). […] However, most of the radioactivity remained in the Pro-Pro peak indicating substantial cleavage of Bk at the N-terminal end.
Perfusion of the Isolated Rat Lung--Male Sprague Dawley rats, weighing 300-500 grams, were anesthetized with sodium pentobarbital (50-75 mg/kg) given by intraperitoneal injection. The trachea was cannulated and the lungs ventilated with air at 70 cycles per minute (Harvard Small Animal Ventilator) at a pressure of 70 mm H2 O. The heart and lungs were exposed via midsternal incision and 1000 units of heparin were administered intracardially. Polyethylene cannulae were secured into the pulmonary artery and the left ventricle. A modified Krebs buffer (118.5 mM NaCl, 4.7 mM KCl, 1.1 mM KH2 PO4, 1.1 mM MgSO4, 2.5 mM CaCl2, 19.6 mM NaHCO3, 5.6 mM dextrose), which was kept in a 50° C. water bath and aerated with 95% O2 -5% CO2 to pH 7.35, was perfused into the pulmonary artery at 35° C. and 2.6 ml/min (LKB Microperplex peristaltic pump). The buffer was circulated through the isolated lung in situ until the effluent was free of blood. The surgical field was maintained at 37° .C with a heat lamp throughout the procedure. Experiments were conducted by introducing [^3 H]-Bk in the presence or absence of test peptidase inhibitors into the pulmonary circulation via the pulmonary artery and then collecting perfusion effluent from the left ventricular cannula. […] The lung was then perfused with 1 μCi [^3 H]-Bk in 1 ml of the inhibitor solution (giving 16 nM Bk) followed by inhibitor solution alone. Effluent was collected in tubes (0.5 min/fraction) containing 150 μl of 2% TFA. For each lung preparation, 5-6 samples were perfused over a period of about one hour. Control perfusions of [^3 H]-Bk alone were always carried out before perfusions of samples containing ramiprilat because of the slow reversibility of inhibition of ACE by this compound. […] The effects of the latter two inhibitors were reversible.
Separation and Identification of Bradykinin Metabolites--The fractions which were collected from each perfusion sample run were counted for radioactivity, and the fraction having the highest radioactive counts was prepared for HPLC by filtration through a Centricon-10 microconcentrator (Amicon). An aliquot of the filtrate containing 25000 dpm (approx. 25 μl) was spiked with a cocktail of unlabelled Bk fragments (3 μl) and then subjected to HPLC using a Waters Radial Compression Separation System with a 5μ NOVA PAK C18 Radial Pak Cartridge. The column was developed at a flow rate of 1 ml/min with a 60 min linear gradient from 100% Solvent A (0.1% TFA in water) to 75% Solvent A: 25% Solvent B (0.08% TFA in acetonitrile) using a Spectra Physics 8700XR Solvent Delivery System. The column effluent was simultaneously monitored for absorbance at 206 nm (LKB Uvicord S) and for radioactivity (Radiomatic Flo-One HS Radioactive Flow Detector using Ultima-Flo M scintillation fluid from Packard, Meriden, Conn.). […] Radioactive peaks were identified by comparison of the retention times to those of the unlabelled standards. […]

[4] = isolated perfused rat lung, modified Krebs buffer; settings: Male Sprague Dawley rats, 35° C.
[5] = system: membrane-bound aminopeptidase P; experiment: partially purified human lung membrane-bound aminopeptidase P in 0.1 M Hepes, pH 8.0; settings: 39° C.

IC50 [1]: 430 nM
IC50 [2]: 2.1 µM
Compound: CC(C)C[C@H](N)[C@@H](O)C(=O)N1CCC[C@H]1C(=O)N1CCC[C@H]1C(=O)N[C@@H](C)C(N)=O [(2R,3S), N-[(2R,3S)-3-amino-2-hydroxy-5-methylhexanoyl]-L-prolyl-L-prolyl-L-alaninamide]

Compound: CC[C@H](C)[C@H](N)C(=O)N1CCC[C@H]1C(=O)N[C@H](C(=O)O)[C@@H](C)CC [diprotin A, Ile-Pro-Ile]
form of radioactivity eluted from the lung ([3]; diprotin A present along with ramiprilat (data not shown)): most of the radioactivity eluted from the lung in the form of [^3 H]-Bk(2-9)

Compound: [2,3-Prolyl-3,4-^3 H(N)]-bradykinin
cleaved bond [4]: rapid removal of Pro-Pro by dipeptidylpeptidase IV (DPP IV); also recorded: Pro7-Phe8; also recorded: removing Ser-Pro from the C-terminus (after Phe-Arg); also recorded: Arg1-Pro2, major; also recorded: [^3 H]-Pro-Pro arose by DPP IV cleavage of [^3 H]-Bk(2-9)
fragment found [4]: [^3 H]-Bk(1-5), major; also recorded: [^3 H]-Pro-Pro, minor
not cleaved [4]: no [^3 H]-Bk(1-7) was observed in the perfusate

cleaved bond [5]: Arg-Pro
Compound: Arg-Pro-Pro

Compound: C[C@H](N[C@@H](CCc1ccccc1)C(=O)O)C(=O)N1[C@H](C(=O)O)C[C@@H]2CCC[C@@H]21 [ramiprilat]
percentage of radioactivity eluting from the lung as intact [3H]-Bk ([3]; ramiprilat (0.5 μM) alone in the perfusion medium, mean ± SEM, three rats): 22±6% and 22%
fold increase of intact [3H]-Bk eluting from the lung ([3]; ramiprilat alone versus no inhibitor (unmeasurable levels)): ≥ 22 fold

IC50 [1]: 230 nM
IC50 relative to the IC50 of apstatin ([1]; versus apstatin […]): approximately ten-fold
IC50 [2]: 4.5 µM
Compound: CC(C)C[C@@H](N)[C@H](O)C(=O)N1CCC[C@H]1C(=O)N1CCC[C@H]1C(=O)N[C@@H](C)C(N)=O [(2S,3R), N-[(2S,3R)-3-amino-2-hydroxy-5-methylhexanoyl]-L-prolyl-L-prolyl-L-alaninamide]

Compound: CC(C)C[C@@H](N)[C@H](O)C(=O)N[C@H](C(=O)N[C@H](C(=O)N[C@@H](CC(=O)O)C(=O)O)C(C)C)C(C)C [amastatin, [(2S, 3R)-3-amino-2-hydroxy-5-methylhexanoyl]-Val-Val-Asp]
effect on the pattern of metabolites ([3]; 100 μM along with ramiprilat in the perfusion medium (data not shown)): no significant effect
